Earlier results as cited in patent publication US5733881A, “Opioid peptide antagonists” (Astra AB, priority 1994, dated 1998).

System: μ opioid receptors
Conditions: GPI assay

Question: With Oc1ccc2c3c1O[C@H]1c4[nH]c5ccccc5c4C[C@@]4(O)[C@@H](C2)N(CC2CC2)CC[C@]314 [naltrindole] as the molecule, how does the “μ antagonist Ke” value read?
Answer: The value was 29 nM.
